Assay results from US12428447B2, “Peptide-based non-proteinaceous cargo delivery” (priority 2019, dated 2025).
Bridges are numbered along the chain shown (N, C = ends). Where no end group is shown, it is not given here. [ ]: non-standard residue; d: D form.

Experiments:
[1] = biological target: T1, sodium channel Nav1.7 (Homo sapiens, UniProt Q15858); assay: QX-314 delivery, whole-cell patch-clamp of HEK293 cells stably expressing Nav1.7; format: cell-based
T1 construct: expressed in transfected cells
T1 sequence (Q15858 whole entry): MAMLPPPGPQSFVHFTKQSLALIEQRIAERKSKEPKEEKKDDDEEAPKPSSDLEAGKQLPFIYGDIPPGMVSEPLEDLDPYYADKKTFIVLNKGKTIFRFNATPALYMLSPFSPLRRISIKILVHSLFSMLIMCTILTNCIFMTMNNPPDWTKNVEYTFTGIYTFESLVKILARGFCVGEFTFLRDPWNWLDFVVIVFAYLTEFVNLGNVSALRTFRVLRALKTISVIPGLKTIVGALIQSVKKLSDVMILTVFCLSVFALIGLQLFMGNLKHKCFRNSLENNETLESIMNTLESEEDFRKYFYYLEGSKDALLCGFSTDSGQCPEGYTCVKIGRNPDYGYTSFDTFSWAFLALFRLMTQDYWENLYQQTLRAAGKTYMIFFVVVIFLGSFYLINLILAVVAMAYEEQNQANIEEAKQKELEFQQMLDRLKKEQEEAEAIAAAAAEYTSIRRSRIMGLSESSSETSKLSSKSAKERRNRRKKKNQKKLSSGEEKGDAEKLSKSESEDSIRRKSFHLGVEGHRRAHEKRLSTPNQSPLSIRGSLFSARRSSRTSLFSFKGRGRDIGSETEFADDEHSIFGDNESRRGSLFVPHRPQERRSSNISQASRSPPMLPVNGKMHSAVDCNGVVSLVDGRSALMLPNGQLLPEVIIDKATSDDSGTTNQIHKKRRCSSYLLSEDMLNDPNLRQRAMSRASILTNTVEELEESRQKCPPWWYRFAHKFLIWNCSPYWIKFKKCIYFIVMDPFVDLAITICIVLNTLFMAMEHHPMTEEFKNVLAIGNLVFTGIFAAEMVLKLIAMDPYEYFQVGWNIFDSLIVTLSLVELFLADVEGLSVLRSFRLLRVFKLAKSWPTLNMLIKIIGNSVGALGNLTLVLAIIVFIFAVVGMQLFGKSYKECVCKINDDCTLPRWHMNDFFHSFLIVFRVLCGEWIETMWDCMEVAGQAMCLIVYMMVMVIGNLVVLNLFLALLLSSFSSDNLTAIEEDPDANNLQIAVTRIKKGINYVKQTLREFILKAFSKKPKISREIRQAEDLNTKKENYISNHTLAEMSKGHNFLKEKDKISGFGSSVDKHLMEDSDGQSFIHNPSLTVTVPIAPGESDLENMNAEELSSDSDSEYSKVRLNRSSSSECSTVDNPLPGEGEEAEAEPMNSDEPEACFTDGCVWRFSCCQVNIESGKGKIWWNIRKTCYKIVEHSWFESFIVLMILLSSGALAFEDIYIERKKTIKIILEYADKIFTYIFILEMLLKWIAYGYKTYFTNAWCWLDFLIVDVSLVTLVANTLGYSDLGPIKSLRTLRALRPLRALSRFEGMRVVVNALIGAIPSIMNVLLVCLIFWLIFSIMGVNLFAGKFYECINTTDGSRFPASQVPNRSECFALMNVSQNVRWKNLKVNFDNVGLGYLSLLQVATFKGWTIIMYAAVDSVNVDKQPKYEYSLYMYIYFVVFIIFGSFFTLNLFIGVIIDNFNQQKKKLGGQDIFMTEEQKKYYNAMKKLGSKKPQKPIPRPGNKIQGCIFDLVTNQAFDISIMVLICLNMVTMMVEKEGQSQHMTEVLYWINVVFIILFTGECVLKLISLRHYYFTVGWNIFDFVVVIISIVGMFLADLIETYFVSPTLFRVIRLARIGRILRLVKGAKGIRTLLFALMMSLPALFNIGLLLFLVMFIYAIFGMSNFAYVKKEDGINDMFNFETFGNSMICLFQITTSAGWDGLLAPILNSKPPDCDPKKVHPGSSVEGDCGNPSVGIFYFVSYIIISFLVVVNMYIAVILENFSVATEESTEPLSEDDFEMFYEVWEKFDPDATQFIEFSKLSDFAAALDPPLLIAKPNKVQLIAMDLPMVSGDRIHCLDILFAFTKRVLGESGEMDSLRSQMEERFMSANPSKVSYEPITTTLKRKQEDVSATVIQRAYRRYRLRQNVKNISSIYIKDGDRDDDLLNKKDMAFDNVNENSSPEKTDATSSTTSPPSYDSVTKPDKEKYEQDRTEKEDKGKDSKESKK
Protocol: Cell culture. HEK293 cells stably expressing Nav1.7 were grown in Dulbecco's minimal essential medium (DMEM, Gibco BRL Life Technologies) supplemented with fetal bovine serum (FBS, 10%), L-glutamine (2 mM), penicillin (100 U/mL), streptomycin ([…]). The cells were incubated at 37° C. in a 5% CO2 humidified atmosphere.
(§1) Delivery. Cells were seeded 24 hours prior to the experiment in 24-well plate. Cells were washed twice with PBS. A solution containing 1 mM of QX-314, 5 μM of FSD194 and 15 μM of GFP-NLS protein was applied to cells for 90 seconds and removed by aspiration. Control was performed using 5 μM of FSD194 or of 2.5 mM QX-314, in presence of GFP-NLS. Cells were washed with 800 μL of DMEM containing 10% FBS and transferred in the recording solution to perform the electrophysiology. GFP-positive cells were determined by microscopy and then selected for patch-clamp analysis.
Electrophysiology. Frequency protocol with QX-314 was recorded within 30 s after the whole-cell configuration was formed. Frequency protocol consists of a pulse of 10 ms at −20 mV from a holding potential of −140 mV at 10 Hz. Whole-cell Na+ currents in HEK293 cells were recorded at room temperature using an Axopatch 200B with the whole-cell configuration of the patch-clamp technique (Molecular Devices). pClamp v10.0 was used for the pulse stimulations and recordings (Molecular Devices). Currents were filtered at 5 kHz, digitized at 100 kHz using a Digidata 1550 AD converter (Molecular devices), and stored on a computer for subsequent analyses. Series resistance was compensated by 70-80%. When needed, linear leak current artifacts were removed using on-line leak subtraction. Fire-polished low-resistance electrodes (2MS2) were pulled from 8161 glass (Corning).
Recording Solutions. Bath solution: 35 mM NaCl, 115 mM NMDG, 2 mM KCl, 1.5 mM CaCl2, 1.0 mM MgCl2, 10 mM glucose, 10 mM HEPES. The pH was adjusted to pH 7.3 with 1 M NaOH. Pipette solution: 35 mM NaCl, 105 mM CsF, 10 mM EGTA, and 10 mM HEPES. The pH was adjusted to pH 7.4 with 1 M CsOH.

[2] = tested on: HEK293 cells; assay: GFP-NLS co-transduction in HEK293 cells, microscopy; format: cell-based, Human; conditions: 5 μM FSD194+15 μM GFP-NLS, with or without QX-314
Protocol: as §1

[3] = tested on: HedgeHog signalling pathway; assay: Hedgehog pathway inhibitor delivery to Gli-luciferase reporter NIH3T3 cells (luminescence); format: cell-based, Mouse; conditions: for Mean luminescence intensity: inhibitor 100 μM, 90 seconds, mShh-stimulated reporter cells; for cellular luminescence intensity in the presence of FSD250D as compared to in the absence of FSD250D: +mShh, inhibitor transduced by FSD250D
Protocol: Stock solutions of cargoes were prepared as follows: Gant61 stock (20 mM in DMSO); HPI4 stock (40 mM in DMSO); Itraconazole stock (4.8 mM (4 mg/mL) in DMSO); Arsenic trioxide (ATO) stock (40 mM in H2O). Peptide shuttle agent (5 μM) and Hedgehog pathway inhibitor (100 μM) were mixed and volume was completed to 50 μL with PBS.
Hedgehog signaling pathway Gli Reporter NIH 3T3 cells were cultured in DMEM containing 10% calf serum. Cells were trypsinized, centrifuged and resuspended at 10 million cells/mL in PBS. 50 μL of cells (500 000 cells/well) were distributed in a round bottom non-treated 96-well plate. Resuspended cells were mixed with a delivery mix containing the peptide shuttle agent (5 μM) and Hedgehog pathway inhibitor (100 μM). Cells were incubated 90 seconds with the delivery mix at room temperature, 200 μL of DMEM containing 10% calf serum (200 μL) was added in each well, and cells were centrifuged (400 g, 4 min.) and washed with 200 μL of PBS. Cells were then resuspended in 200 μL of DMEM and then transferred to a well of a 6-well plate containing 1 mL of DMEM containing 10% calf serum and incubated at 37° C. for 2 hours. The media was gently removed and 1 ml of either control media (Opti-MEM™) or activating media (Opti-MEM with 5 μg/mL mShh) was added to each well. Cells were incubated at 37° C. for 24-30 hours.
For analyses, cells were trypsinized and resuspended in each well with 200 μL of Opti-MEM™, and then split equally to two wells of a round bottom 96-well plate. Viability was assessed using flow cytometry analysis and ONE-Step Luciferase assay was used to measure luminescence following manufacturer's instructions.
Briefly, the NIH3T3 Gli-luciferase reporter cell line is designed to monitor the activity of the HedgeHog signaling pathway and contains the firefly luciferase gene under the control of Gli responsive elements stably integrated into NIH3T3 cells. As shown in FIG. 3 and Table 1, exposure of the NIH3T3 Gli-luciferase reporter cells to recombinant mouse Sonic HedgeHog protein as a positive control (“Ctrl+mShh”) results in an increase in luminescence intensity that is not observed in the negative control cells which were not exposed to mShh (“Ctrl−mShh”).

[4] = tested on: HeLa cells; assay: Propidium iodide (PI) transduction in HeLa cells, flow cytometry; format: cell-based, Human; conditions: for delivery / transduction of PI: shuttle or control peptide 10 μM, PI 10 μg/mL, 1 minute, 2 hours after delivery
Protocol: HeLa cells were plated (20 000 cells/well) in a 96 well-dish the day prior the experiment. Each delivery mix comprising a synthetic peptide shuttle agent (10 μM) and the propidium iodide (PI) (10 μg/mL) or the GFP-NLS (10 μM) were prepared and completed to 50 μL with phosphate-buffered saline (PBS). Cells were washed once with PBS and the Shuttle/PI or Shuttle/GFP-NLS added on cells for one minute. Then 100 μL DMEM containing 10% FBS was added to the mix and removed. Cells were washed once with PBS and incubated in DMEM containing 10% FBS. Cells were analyzed after 2-hour incubation by flow cytometry. For the condition “FS then PI”, only the synthetic peptide shuttle agent (10 μM) was added on HeLa cells for 1 minute and one hour later PI (10 μg/mL) was added for one minute following the same washing step. Cells were analyzed one hour after PI or GFP-NLS treatment.
HeLa cells were cultured as described in Example 1.3 and subjected to the PI transduction protocol as described in Example 1.4, with the proteinaceous cargo GFP-NLS being transduced separately as a control in some experiments. Results were acquired by flow cytometry two hours after delivery and expressed as percentages of fluorescent cells (% PI+ cells or % GFP+ cells), as shown in FIGS. 1A-1D and as summarized in the table shown in FIG. 2.
To evaluate the suitability of PI as a “surrogate” cargo for novel shuttle agents, a proprietary library of over 300 candidate peptide shuttle agents was screened in parallel for both PI and GFP-NLS transduction activity in HeLa cells using flow cytometry as generally described in Example 1.4. Aside from the concentrations of the cargoes (i.e., 10 μg/mL for PI vs 10 μM for GFP-NLS), the transduction protocols were otherwise the same.
Due to the large number of peptides screened, negative controls were performed in parallel for each experimental batch and included a “no treatment” (NT) control in which the cells were not exposed to shuttle peptide or cargo, as well as a “cargo alone” control in which cells were exposed to the cargo in the absence of shuttle agent. Results are shown in FIGS. 6 and 7, in which “transduction efficiency” refers to the percentage of all viable cells that are positive for the cargo (PI or GFP-NLS). “Mean Delivery score” provides a further indication of the total amount of cargo that was delivered per cell, amongst all cargo-positive cells. Mean PI or GFP-NLS delivery score was calculated by multiplying the mean fluorescence intensity (of at least duplicate samples) measured for the viable PI+ or GFP+ cells by the mean percentage of viable PI+ or GFP+ cells, divided by 100,000 for GFP delivery or by 10,000 for PI delivery. […]

[5] = tested on: HedgeHog pathway; assay: Hedgehog pathway inhibitor transduction in vivo, depilated mouse hair regrowth; design: species or system C57BL6 mice; conditions: 100 μM inhibitor, topical on depilated skin, in the presence of FSD250D vs in its absence, 10 days post-treatment

FSD194: rationally-designed synthetic peptide shuttle agent (KWKLLKLWSRLLKLWGGSGGGSRRLKAKRAKA; FSD194)
evoked whole-cell Na+ current amplitude ([1]; 15 μM GFP-NLS+5 μM FSD194, without QX-314): current amplitude reduction was not observed | GFP-NLS-positive cells [2]: GFP-NLS-positive cells were identified

CC[N+](CC)(CC)CC(=O)Nc1c(C)cccc1C.[Br-] [QX-314, Lidocaine N-ethyl bromide]
evoked whole-cell Na+ current amplitude ([1]; 1 mM QX-314+15 μM GFP-NLS+5 μM FSD194, 90 seconds, 10 ms pulse at 10 Hz): Reduction of the current amplitude | evoked whole-cell Na+ current amplitude ([1]; 2.5 mM QX-314+15 μM GFP-NLS, absence of FSD194): current amplitude reduction was not observed

CCC(C)n1ncn(-c2ccc(N3CCN(c4ccc(OCC5COC(Cn6cncn6)(c6ccc(Cl)cc6Cl)O5)cc4)CC3)cc2)c1=O (stereo not drawn) [Itraconazole]
Mean luminescence intensity ([3]; +FSD250D (5 μM)): 1519 | Mean luminescence intensity ([3]; −FSD250D): 5612

FSD268: rationally-designed synthetic peptide shuttle agent (KWKLLKLWSRLLKLWGGSGGGSQARAQARQAR; FSD268)
delivery / transduction of PI [4]: increased the delivery of PI

FSD268 Cyclic Disulfide: cyclic peptide with a disulfide bridge between two flanking cysteines added in N and C terminal positions (CKWKLLKLWSRLLKLWGGSGGGSQARAQARQARC; disulfide 1-34)
delivery / transduction of PI [4]: increased the delivery of PI

Arsenic trioxide [ATO]
Mean luminescence intensity ([3]; +FSD250D (5 μM)): 4686 | cellular luminescence intensity in the presence of FSD250D as compared to in the absence of FSD250D [3]: significantly reduced cellular luminescence intensity | Mean luminescence intensity ([3]; −FSD250D): 5967

CN(C)c1ccccc1CN1CCCN(Cc2ccccc2N(C)C)C1c1ccncc1 [Gant61]
Mean luminescence intensity ([3]; +FSD250D (5 μM)): 4216 | cellular luminescence intensity in the presence of FSD250D as compared to in the absence of FSD250D [3]: significantly reduced cellular luminescence intensity | Mean luminescence intensity ([3]; −FSD250D): 6770 | hair regrowth [5]: delayed hair regrowth

FSD268 Cyclic Amide: cyclic peptide possessing an amide bond between its C and N termini (KWKLLKLWSRLLKLWGGSGGGSQARAQARQAR; head-to-tail cyclic amide; FSD268 Cyclic Amide; (1)..(32) Cyclic peptide covalent link between K1 and R32)
delivery / transduction of PI [4]: increased the delivery of PI

N#C/C(C(=O)c1ccc(Cl)cc1Cl)=C1\NC(=O)c2ccccc2N1 [HPI-4]
Mean luminescence intensity ([3]; +FSD250D (5 μM)): 1993 | cellular luminescence intensity in the presence of FSD250D as compared to in the absence of FSD250D [3]: significantly reduced cellular luminescence intensity | Mean luminescence intensity ([3]; −FSD250D): 6370

FSD250D: same amino acid sequence as FSD250, except that all the amino acids are D-amino acids ([dK][dW][dK][dL][dL][dK][dL][dW][dS][dR][dL][dL][dK][dL][dW]GG[dS]GGG[dS][dA][dR][dA][dA][dR][dQ][dA][dR])
effect of shuttle agent alone on luminescence intensity following mShh stimulation ([3]; FSD250D together with mShh, no inhibitor, data not shown): had no effect on cellular luminescence intensity

FSD174 Scramble: negative control peptide, same amino acid composition as FSD174, order changed (LGRSGRIKIGGWSALASRARQARGLKIWTQGRL; FSD174 Scramble)
PI transduction efficiency relative to "cargo alone" negative control ([4]; negative control peptide, data not shown): lower transduction efficiencies for PI
